The source of these data is PubChem BioAssay AID651973 (The Scripps Research Institute Molecular Screening Center, 2013).

The structures appear in SMILES notation. Calls of active or inactive are those of the source. The rule behind the calls is not given here. A value given as a limit tells only on which side of the number the result lay.

One may read the IC50 as the concentration at which inhibition is half-maximal.

The assay relates to Cell-based VP16 transactivation luciferase reporter, luminescence. Briefly: compounds lowering VP16-driven luciferase output – cell-based, luminescence, counter-screen for LRH-1 inverse agonist project, dose response (AID 651973). A general note: A counterscreen serves to expose hits that act by an unwanted route or on another target.
Regarding `Cc1nn(Cc2ccccc2)c(C)c1C(=O)OCC(=O)Nc1ccccc1SCC#N`, the IC50 is > 35.9 µM (inactive).
As for `COC(=O)c1ccc(COc2ccc(/C=N/NC(N)=S)cc2)o1`, the IC50 is > 35.9 µM (inactive).
Consider `O=C(CSc1nnc(CNC(=O)c2ccccc2F)o1)Nc1ccc2c(c1)OCCO2`, for which the IC50 was > 35.9 µM (inactive).
With `COCC(=O)NC1CCN(CC(=O)Nc2ccc(OC)cc2[N+](=O)[O-])CC1`, the IC50 was > 35.9 µM (inactive).
With `COc1ccc(OCCNC(=O)C2(C)CCN2Cc2ccc(SC)cc2)cc1` (stereo not drawn), the IC50 is 28.5 µM (inactive).
The same measure for `COc1ccc(CCNC(=O)CSc2nc3[nH]c(=O)cc(O)c3s2)cc1`: > 35.9 µM (inactive); for `CCOc1ccc(NC(=O)COC(=O)COc2cccc3c2OC(C)(C)C3)cc1`: > 35.9 µM (inactive).
For `COc1ccc(NC(=O)COC(=O)c2c(-c3ccccc3)noc2C)cc1`, the IC50 was > 35.9 µM (inactive).
As for `Cc1no[n+]([O-])c1COc1ccc(/C=N/n2nnnc2N)cc1`, the IC50 is > 35.9 µM (inactive).
With `Cc1ccc(C)c(NC(=O)CSc2nc3[nH]ncc3c(=O)[nH]2)c1`, the IC50 was > 35.9 µM (inactive).
Take `CCc1ccccc1NC(=O)CSc1nnc([C@@H]2CCCN2C(=O)OC(C)(C)C)o1`: the IC50 was > 35.9 µM (inactive).
With `O=C(Nc1ccc(Cc2ccncc2)cc1)c1ccc([N+](=O)[O-])o1`, the IC50 is > 35.9 µM (inactive).
Regarding `COc1ccc(S(=O)(=O)Nc2ccc3c(c2)n(C)c(=O)n3C)cc1F`, the IC50 is > 35.9 µM (inactive).
On to `CCOc1ccc(NC(=O)COC(=O)C2CCC(=O)N2)c([N+](=O)[O-])c1` (stereo not drawn), for which the IC50 was > 35.8 µM (inactive).
Consider `Cc1ccc(NC(=O)CSc2nc3[nH]c(=O)cc(O)c3s2)c(Br)c1`, for which the IC50 is > 35.9 µM (inactive).
Turning to `COc1ccc(CCNC(=O)CN2C(=O)NC3(CCCCC3C)C2=O)cc1` (stereo not drawn), the IC50 was > 35.9 µM (inactive).
Regarding `O=C(NCC1CCCO1)c1ccc(NC(=O)c2cccc([N+](=O)[O-])c2)cc1` (stereo not drawn), the IC50 is > 35.9 µM (inactive).
The same measure for `COc1ccc(NC(=O)CSc2nc(N)c(-c3ccccc3)c(=O)[nH]2)cc1`: > 35.9 µM (inactive); for `CC(Oc1ccc(S(=O)(=O)N2CCCC2)cc1[N+](=O)[O-])C(=O)NC(C)c1ccccc1` (stereo not drawn): 20.1 µM (inactive).
As for `CCOc1ccc(NC(=O)CSc2nncc(=O)n2N)cc1`, the IC50 was > 35.9 µM (inactive).
The same measure for `CCCc1cc(=O)oc2cc(OCC(=O)NCc3ccccn3)ccc12`: > 35.9 µM (inactive); for `O=[N+]([O-])c1ccc(N2CCN(S(=O)(=O)c3ccccc3)CC2)cc1NCc1cccnc1`: > 35.9 µM (inactive); for `O=C(COC(=O)c1ccc(Br)cc1)Nc1ccccc1Br`: > 35.9 µM (inactive).
Regarding `COc1ccc(-n2c(N)c(C(=O)NCc3cccnc3)sc2=S)cc1`, the IC50 was > 35.9 µM (inactive).
In the case of `O=C(Nc1nc2c(Cl)cccc2s1)c1ccc([N+](=O)[O-])o1`, the IC50 is > 35.9 µM (inactive).
Regarding `CCCc1cc(=O)oc2cc(C)cc(OCC(=O)Nc3ccccn3)c12`, the IC50 is > 35.9 µM (inactive).
`CC1CCCN(c2cc(N(C)CCO)c([N+](=O)[O-])c3nonc23)C1` (stereo not drawn): the IC50 is > 35.9 µM (inactive).
The same measure for `Cc1onc(NC(=O)c2ccc([N+](=O)[O-])o2)c1Br`: > 35.9 µM (inactive).
Consider `COc1ccc(C2(C)NC(=O)N(CC(=O)Nc3ccc(C)cc3Br)C2=O)cc1OC` (stereo not drawn), for which the IC50 was > 35.9 µM (inactive).
Turning to `COC(=O)c1ccc(NC(=O)CN2CCN(c3ccc(Cl)cc3)CC2)cc1`, the IC50 was > 35.9 µM (inactive).
Turning to `O=c1[nH]c(Nc2ccc3c(c2)OCCO3)nnc1Cc1ccccc1`, the IC50 is > 35.9 µM (inactive).
For `CCCc1nnc(SCC(=O)Nc2ccc(OC)cc2)o1`, the IC50 is > 35.9 µM (inactive).
Consider `Cc1ccc(NC(=O)COC(=O)C(NS(=O)(=O)c2ccc(Cl)cc2)C(C)O)c(Br)c1` (stereo not drawn), for which the IC50 is > 35.9 µM (inactive).
For `COc1cc(/C=N/NC(N)=S)ccc1OCC(=O)Nc1ccc(C)cc1`, the IC50 is > 35.9 µM (inactive).
In the case of `Cc1ccc(NC(=O)CSc2sc3c(O)cc(=O)[nH]c3c2C#N)c(F)c1`, the IC50 is > 35.9 µM (inactive).
Take `CC1=CC(O)C(O)C2(C)C1CC1OC(=O)CC3C(C)C(O)C(=O)C2C13CO` (stereo not drawn): the IC50 was > 35.9 µM (inactive).
For `Cc1cccc(NC(=O)COC(=O)Cc2cccs2)c1C` the value was > 35.9 µM (inactive); for `COc1ccc(CCNC(=O)COC(=O)c2cc(Cl)nc(Cl)c2)cc1`, > 35.9 µM (inactive); for `COC(=O)c1ccc(NC(=O)CSc2ccc(-c3ccccn3)nn2)cc1`, > 35.9 µM (inactive).
As to `CCOc1ccc(NC(=O)CSc2nncc(=O)[nH]2)cc1`, the IC50 was > 35.9 µM (inactive).
On to `CCCN(CC(=O)Nc1ccc(C(N)=O)cc1)CC(=O)Nc1ccccc1C`, for which the IC50 was > 35.9 µM (inactive).
Consider `Cc1no[n+]([O-])c1COc1ccccc1/C=N/n1nnnc1N`, for which the IC50 is > 35.9 µM (inactive).
With `COc1ccccc1NC(=O)CN1CCN(CC(=O)Nc2ccc3c(c2)OCCO3)CC1`, the IC50 is > 35.9 µM (inactive).
In the case of `COC(=O)c1ccc(NC(=O)COc2cccc(-n3cnnn3)c2)cc1`, the IC50 is > 35.9 µM (inactive).
Turning to `CC(C)CC1(C)NC(=O)N(CC(=O)Nc2ccc3c(c2)OCCO3)C1=O` (stereo not drawn), the IC50 is > 35.9 µM (inactive).
`O=C(CN1C(=O)NC2(CCCC2)C1=O)NCCc1ccc(F)cc1`: the IC50 was > 35.9 µM (inactive).
`CCc1cc(=O)oc2cc(C)cc(OCC(=O)NC3CC3)c12`: the IC50 was > 35.9 µM (inactive).
The same measure for `CCOc1ccc(NC(=O)COC(=O)c2ccc3c(c2)OCCO3)cc1`: > 35.9 µM (inactive).
Consider `O=C(CN1C(=O)CCC1=O)Nc1ccc(Br)cc1`, for which the IC50 was > 35.9 µM (inactive).
Regarding `Cc1ccc2cccc(OCC(=O)NCCC3=CCCCC3)c2n1`, the IC50 was > 35.8 µM (inactive).
On to `CCC(=O)Nc1nnc(SCC(=O)NCCc2ccc(OC)c(OC)c2)s1`, for which the IC50 was > 35.9 µM (inactive).
Consider `O=C(CN1C(=O)NC2(CCCCC2)C1=O)NCCc1c[nH]c2ccccc12`, for which the IC50 is > 35.9 µM (inactive).
Take `COc1cc([N+](=O)[O-])ccc1NC(=O)Cn1ccsc1=N`: the IC50 is > 35.9 µM (inactive).
In the case of `Cc1nnc(SCC(=O)Nc2ccc(Br)cc2)n(N)c1=O`, the IC50 is > 35.9 µM (inactive).
The same measure for `NS(=O)(=O)c1ccc(CCNC(=O)COc2ccc3c4c(c(=O)oc3c2)CCC4)cc1`: > 35.9 µM (inactive); for `CCCc1cc(=O)oc2c(C)c(OCC(=O)NCCN3CCOCC3)ccc12`: > 35.9 µM (inactive); for `COc1ccc(CCNC(=O)CN2C(=O)NC3(CCCCC3)C2=O)cc1`: > 35.9 µM (inactive).
With `CCCc1nnc(SCC(=O)Nc2ccc(C(=O)OCC)cc2)o1`, the IC50 is > 35.9 µM (inactive).
The same measure for `Cc1cccc(CN2C(=O)CSc3ccc(C(=O)NC4CC4)cc32)c1`: 26.3 µM (inactive).
As to `O=C(COC(=O)c1ccc(=O)n(Cc2ccccc2)n1)Nc1ccc2c(c1)OCCO2`, the IC50 was > 35.9 µM (inactive).
Regarding `CC1(C(=O)NCc2ccc3c(c2)OCO3)CCN1C(=O)Cc1ccc(Cl)cc1Cl` (stereo not drawn), the IC50 is > 35.9 µM (inactive).
The same measure for `CCOc1ccc(NC(=O)CN2CCN(CC(=O)Nc3ccc(OC)cc3)CC2)cc1`: > 35.9 µM (inactive); for `COc1ccc(CCNC(=O)COC(=O)c2cccn2C)cc1`: > 35.9 µM (inactive).
On to `CCn1c(SCC(=O)Nc2ccc(Cl)cc2)nnc1C1CC1`, for which the IC50 is > 35.9 µM (inactive).
As to `Cc1cc(=O)oc2c(C)c(OCC(=O)NC3CC(C)(C)NC(C)(C)C3)ccc12`, the IC50 was > 35.9 µM (inactive).
Turning to `COCCn1c(C)cc(/C=C(\C#N)C(=O)OCC(=O)Nc2ccc(S(N)(=O)=O)cc2)c1C`, the IC50 is > 35.9 µM (inactive).
Regarding `CCOc1ccc(NC(=O)COC(=O)CC2CCCCC2)cc1`, the IC50 is > 35.9 µM (inactive).
`CC(=O)Nc1ccc(NC(=O)COC(=O)Cc2c[nH]c3ccccc23)cc1`: the IC50 is > 35.9 µM (inactive).
